Data published in US12102089B2, “Method for inactivating mold spores” (DSM IP ASSETS B.V., priority 2017, dated 2024).

Assays:
[1] = tested on: Taleromyces macrosporus CBS 130.89; details: 2.5 ppm natamycin, heat treatment, apple juice; cited from earlier work
[2] = tested on: Talaromyces emersonii (CBS 236.58); test: Heat treatment of Talaromyces emersonii spores in ice tea with natamycin, visual growth; type: cell-based; parameters: key to growth or no growth: growth (+); no growth (−)
Procedure: Commercially available ice tea (Lipton, peach flavor, non-carbonated, 1.5 L) was adjusted to high water hardness by adding 1 ml of a solution of 39 g CaCl2 and 27 g MgCl2 added to 934 g water. ⅓ of this ice tea preparation (the pH of which was 3.15) was left as-such, ⅓ of the preparation was enriched with 5 ppm natamycin and ⅓ of the preparation was enriched with 10 ppm natamycin. Samples of 5 ml were made from each preparation in 15 ml sterile plastic tubes. Of each preparation 8 samples were pre-heated to the desired pasteurization temperature using a water bath. Temperatures used were RT, 60, 65, 70, 75, 80, 85 and 90° C. When the desired temperature was reached, 100 μl of a 2500 spores/ml spore suspension of Aspergillus niger ATCC 9029AA was added to each tube. Subsequently, the samples were kept for 30 seconds at the temperature in question in the water bath. Next, the samples were cooled on ice to a temperature of 25° C. Samples were incubated at 25° C. and visually examined for growth (formation of mold flakes or turbidity) for two months. Additionally, samples were enumerated according to ISO protocol 21527-1.2008 on day 0 (before heat treatment) and day 1 (after heat treatment) to count immediate loss of viability. […] For the results, see Table 1. […] Example 1 was repeated however with Talaromyces emersonii (CBS 236.58, 1000 spores/ml) instead of Aspergillus niger.

**Q.** With `C[C@@H]1C/C=C/C=C/C=C/C=C/[C@H](O[C@@H]2O[C@H](C)[C@@H](O)[C@H](N)[C@@H]2O)C[C@@H]2O[C@](O)(C[C@@H](O)C[C@H]3O[C@@H]3/C=C/C(=O)O1)C[C@H](O)[C@H]2C(=O)O` [natamycin] as the compound, how does the “duration of prevention of germination” value [1] read?
**A.** 4 days

**Q.** What about the “growth or no growth” value ([2]; 60°C, 5 ppm, day 1) of the same compound?
**A.** −

**Q.** And the “growth or no growth” value ([2]; 60°C, 5 ppm, day 2)?
**A.** −

**Q.** What about the “growth or no growth” value ([2]; 60°C, 5 ppm, day 3) of the same compound?
**A.** −

**Q.** And the “growth or no growth” value ([2]; 60°C, 5 ppm, day 4)?
**A.** −

**Q.** And the “growth or no growth” value ([2]; 60°C, 5 ppm, day 5)?
**A.** −

**Q.** What about the “growth or no growth” value ([2]; 60°C, 5 ppm, day 6) of the same compound?
**A.** −

**Q.** What about the “growth or no growth” value ([2]; 60°C, 5 ppm, day 7) of the same compound?
**A.** −

**Q.** What about the “growth or no growth” value ([2]; 60°C, 5 ppm, day 8) of the same compound?
**A.** −

**Q.** What about the “growth or no growth” value ([2]; 60°C, 5 ppm, day 9) of the same compound?
**A.** −

**Q.** And the “growth or no growth” value ([2]; 60°C, 5 ppm, day 10)?
**A.** −

**Q.** What about the “growth or no growth” value ([2]; 60°C, 5 ppm, day 11) of the same compound?
**A.** −

**Q.** What about the “growth or no growth” value ([2]; 60°C, 5 ppm, day 12) of the same compound?
**A.** −

**Q.** What about the “growth or no growth” value ([2]; 60°C, 5 ppm, day 13) of the same compound?
**A.** −

**Q.** What about the “growth or no growth” value ([2]; 60°C, 5 ppm, day 14) of the same compound?
**A.** −

**Q.** What about the “growth or no growth” value ([2]; 60°C, 10 ppm, day 1) of the same compound?
**A.** −

**Q.** And the “growth or no growth” value ([2]; 60°C, 10 ppm, day 2)?
**A.** −

**Q.** And the “growth or no growth” value ([2]; 60°C, 10 ppm, day 3)?
**A.** −

**Q.** And the “growth or no growth” value ([2]; 60°C, 10 ppm, day 4)?
**A.** −

**Q.** And the “growth or no growth” value ([2]; 60°C, 10 ppm, day 5)?
**A.** −

**Q.** What about the “growth or no growth” value ([2]; 60°C, 10 ppm, day 6) of the same compound?
**A.** −

**Q.** What about the “growth or no growth” value ([2]; 60°C, 10 ppm, day 7) of the same compound?
**A.** −

**Q.** And the “growth or no growth” value ([2]; 60°C, 10 ppm, day 8)?
**A.** −

**Q.** And the “growth or no growth” value ([2]; 60°C, 10 ppm, day 9)?
**A.** −

**Q.** And the “growth or no growth” value ([2]; 60°C, 10 ppm, day 10)?
**A.** −

**Q.** What about the “growth or no growth” value ([2]; 60°C, 10 ppm, day 11) of the same compound?
**A.** −

**Q.** What about the “growth or no growth” value ([2]; 60°C, 10 ppm, day 12) of the same compound?
**A.** −

**Q.** And the “growth or no growth” value ([2]; 60°C, 10 ppm, day 13)?
**A.** −

**Q.** What about the “growth or no growth” value ([2]; 60°C, 10 ppm, day 14) of the same compound?
**A.** −

**Q.** What about the “growth or no growth” value ([2]; 65°C, 5 ppm, day 1) of the same compound?
**A.** −

**Q.** And the “growth or no growth” value ([2]; 65°C, 5 ppm, day 2)?
**A.** −

**Q.** And the “growth or no growth” value ([2]; 65°C, 5 ppm, day 3)?
**A.** −

**Q.** What about the “growth or no growth” value ([2]; 65°C, 5 ppm, day 4) of the same compound?
**A.** +

**Q.** And the “growth or no growth” value ([2]; 65°C, 5 ppm, day 5)?
**A.** +

**Q.** And the “growth or no growth” value ([2]; 65°C, 5 ppm, day 6)?
**A.** +

**Q.** And the “growth or no growth” value ([2]; 65°C, 5 ppm, day 7)?
**A.** +

**Q.** And the “growth or no growth” value ([2]; 65°C, 5 ppm, day 8)?
**A.** +

**Q.** What about the “growth or no growth” value ([2]; 65°C, 5 ppm, day 9) of the same compound?
**A.** +

**Q.** What about the “growth or no growth” value ([2]; 65°C, 5 ppm, day 10) of the same compound?
**A.** +

**Q.** What about the “growth or no growth” value ([2]; 65°C, 5 ppm, day 11) of the same compound?
**A.** +

**Q.** What about the “growth or no growth” value ([2]; 65°C, 5 ppm, day 12) of the same compound?
**A.** +

**Q.** What about the “growth or no growth” value ([2]; 65°C, 5 ppm, day 13) of the same compound?
**A.** +

**Q.** And the “growth or no growth” value ([2]; 65°C, 5 ppm, day 14)?
**A.** +

**Q.** And the “growth or no growth” value ([2]; 65°C, 10 ppm, day 1)?
**A.** −

**Q.** What about the “growth or no growth” value ([2]; 65°C, 10 ppm, day 2) of the same compound?
**A.** −

**Q.** And the “growth or no growth” value ([2]; 65°C, 10 ppm, day 3)?
**A.** −

**Q.** What about the “growth or no growth” value ([2]; 65°C, 10 ppm, day 4) of the same compound?
**A.** −

**Q.** What about the “growth or no growth” value ([2]; 65°C, 10 ppm, day 5) of the same compound?
**A.** −

**Q.** And the “growth or no growth” value ([2]; 65°C, 10 ppm, day 6)?
**A.** −

**Q.** What about the “growth or no growth” value ([2]; 65°C, 10 ppm, day 7) of the same compound?
**A.** −

**Q.** What about the “growth or no growth” value ([2]; 65°C, 10 ppm, day 8) of the same compound?
**A.** −

**Q.** And the “growth or no growth” value ([2]; 65°C, 10 ppm, day 9)?
**A.** −

**Q.** And the “growth or no growth” value ([2]; 65°C, 10 ppm, day 10)?
**A.** −

**Q.** What about the “growth or no growth” value ([2]; 65°C, 10 ppm, day 11) of the same compound?
**A.** −

**Q.** What about the “growth or no growth” value ([2]; 65°C, 10 ppm, day 12) of the same compound?
**A.** −

**Q.** And the “growth or no growth” value ([2]; 65°C, 10 ppm, day 13)?
**A.** −

**Q.** And the “growth or no growth” value ([2]; 65°C, 10 ppm, day 14)?
**A.** −

**Q.** And the “growth or no growth” value ([2]; 70°C, 5 ppm, day 1)?
**A.** −

**Q.** What about the “growth or no growth” value ([2]; 70°C, 5 ppm, day 2) of the same compound?
**A.** −

**Q.** What about the “growth or no growth” value ([2]; 70°C, 5 ppm, day 3) of the same compound?
**A.** −

**Q.** And the “growth or no growth” value ([2]; 70°C, 5 ppm, day 4)?
**A.** −

**Q.** And the “growth or no growth” value ([2]; 70°C, 5 ppm, day 5)?
**A.** −

**Q.** What about the “growth or no growth” value ([2]; 70°C, 5 ppm, day 6) of the same compound?
**A.** −

**Q.** What about the “growth or no growth” value ([2]; 70°C, 5 ppm, day 7) of the same compound?
**A.** −

**Q.** What about the “growth or no growth” value ([2]; 70°C, 5 ppm, day 8) of the same compound?
**A.** −

**Q.** What about the “growth or no growth” value ([2]; 70°C, 5 ppm, day 9) of the same compound?
**A.** −

**Q.** And the “growth or no growth” value ([2]; 70°C, 5 ppm, day 10)?
**A.** −

**Q.** And the “growth or no growth” value ([2]; 70°C, 5 ppm, day 11)?
**A.** −

**Q.** What about the “growth or no growth” value ([2]; 70°C, 5 ppm, day 12) of the same compound?
**A.** −

**Q.** And the “growth or no growth” value ([2]; 70°C, 5 ppm, day 13)?
**A.** −

**Q.** What about the “growth or no growth” value ([2]; 70°C, 5 ppm, day 14) of the same compound?
**A.** −

**Q.** And the “growth or no growth” value ([2]; 70°C, 10 ppm, day 1)?
**A.** −

**Q.** And the “growth or no growth” value ([2]; 70°C, 10 ppm, day 2)?
**A.** −

**Q.** What about the “growth or no growth” value ([2]; 70°C, 10 ppm, day 3) of the same compound?
**A.** −

**Q.** And the “growth or no growth” value ([2]; 70°C, 10 ppm, day 4)?
**A.** −

**Q.** And the “growth or no growth” value ([2]; 70°C, 10 ppm, day 5)?
**A.** −

**Q.** And the “growth or no growth” value ([2]; 70°C, 10 ppm, day 6)?
**A.** −

**Q.** What about the “growth or no growth” value ([2]; 70°C, 10 ppm, day 7) of the same compound?
**A.** −

**Q.** And the “growth or no growth” value ([2]; 70°C, 10 ppm, day 8)?
**A.** −

**Q.** What about the “growth or no growth” value ([2]; 70°C, 10 ppm, day 9) of the same compound?
**A.** −

**Q.** And the “growth or no growth” value ([2]; 70°C, 10 ppm, day 10)?
**A.** −

**Q.** And the “growth or no growth” value ([2]; 70°C, 10 ppm, day 11)?
**A.** −

**Q.** What about the “growth or no growth” value ([2]; 70°C, 10 ppm, day 12) of the same compound?
**A.** −

**Q.** What about the “growth or no growth” value ([2]; 70°C, 10 ppm, day 13) of the same compound?
**A.** −

**Q.** What about the “growth or no growth” value ([2]; 70°C, 10 ppm, day 14) of the same compound?
**A.** −

**Q.** And the germination ([2]; 75° C., 10 ppm natamycin)?
**A.** no germination occurred

**Q.** And the “growth or no growth” value ([2]; 75°C, 5 ppm, day 9)?
**A.** +

**Q.** And the “growth or no growth” value ([2]; 75°C, 5 ppm, day 10)?
**A.** +

**Q.** What about the germination ([2]; 85° C., both concentrations (5 and 10 ppm)) of the same compound?
**A.** no germination occurred

**Q.** And the germination ([2]; RT, 5 or 10 ppm natamycin)?
**A.** delayed germination

**Q.** And the “growth or no growth” value ([2]; RT, 10 ppm, day 1)?
**A.** −

**Q.** And the “growth or no growth” value ([2]; RT, 10 ppm, day 2)?
**A.** −

**Q.** What about the “growth or no growth” value ([2]; RT, 10 ppm, day 3) of the same compound?
**A.** −

**Q.** And the “growth or no growth” value ([2]; RT, 10 ppm, day 4)?
**A.** −

**Q.** And the “growth or no growth” value ([2]; RT, 10 ppm, day 5)?
**A.** −

**Q.** What about the “growth or no growth” value ([2]; RT, 10 ppm, day 6) of the same compound?
**A.** −

**Q.** And the “growth or no growth” value ([2]; RT, 10 ppm, day 7)?
**A.** +

**Q.** What about the “growth or no growth” value ([2]; RT, 10 ppm, day 8) of the same compound?
**A.** +

**Q.** What about the “growth or no growth” value ([2]; RT, 10 ppm, day 9) of the same compound?
**A.** +

**Q.** What about the “growth or no growth” value ([2]; RT, 10 ppm, day 10) of the same compound?
**A.** +

**Q.** What about the “growth or no growth” value ([2]; RT, 10 ppm, day 11) of the same compound?
**A.** +

**Q.** What about the “growth or no growth” value ([2]; RT, 10 ppm, day 12) of the same compound?
**A.** +

**Q.** What about the “growth or no growth” value ([2]; RT, 10 ppm, day 13) of the same compound?
**A.** +

**Q.** And the “growth or no growth” value ([2]; RT, 10 ppm, day 14)?
**A.** +
